Measurements as given in patent US20230287021A1, “COMPOUNDS, COMPOSITIONS AND METHODS FOR STABILIZING TRANSTHYRETIN AND INHIBITING TRANSTHYRETIN MISFOLDING” (Protego Biopharma, Inc., priority 2020, published 2023).
Counter-ions that a name gives are not always drawn.

Experiment: In vitro rat plasma stability assay, formation of tafamidis
Type: in vitro ADME
Details: 37° C., 2 µM test compound
Description: A stability assay in plasma (rat or human) was used to evaluate the ability of a compound provided herein to convert to an active TTR stabilizer. The test compound was added to plasma and incubated at 37° C. in a water bath at a concentration of 2 µM. At each time point (0, 10, 30, 60 and 120 min or 0, 60, 120, 180 and 240 min), stop solution (tolbutamide plus labetalol) was added to precipitate protein and mixed thoroughly. After centrifugation, an aliquot of supernatant was analyzed by LC-MS/MS. The percentage of formation of active agent was calculated at each time point.

| Structure (SMILES) | Formation of tafamidis at 120 min |
| --- | --- |
| CC(C)(C)OC(=O)N1CCC(OC(=O)c2ccc3nc(-c4cc(Cl)cc(Cl)c4)oc3c2)CC1 [Compound 12, 1-(tert-butoxycarbonyl)piperidin-4-yl 2-(3,5-dichlorophenyl)benzo [d]oxazole-6-carboxylate] | A (A is <25%) |
| O=C(OCCCC1CCCO1)c1ccc2nc(-c3cc(Cl)cc(Cl)c3)oc2c1 (stereo not shown) [Compound 101] | C (C is ≥50 to <75%) |
| O=C(OCCC[n+]1ccccc1)c1ccc2nc(-c3cc(Cl)cc(Cl)c3)oc2c1.[Br-] [Compound 3, 1-(3-(2-(3,5-Dichlorophenyl)benzo[d]oxazole-6-carbonyloxy)propyl)-pyridinium bromide] | A (A is <25%) |
| CC(C)(C)OC(=O)NCCCOC(=O)c1ccc2nc(-c3cc(Cl)cc(Cl)c3)oc2c1 [Compound 31, 3-((tert-butoxycarbonyl)amino)propyl 2-(3,5-dichlorophenyl) benzo [d]oxazole-6-carboxylate] | C (C is ≥50 to <75%) |
| CN(C)CCOC(=O)c1ccc2nc(-c3cc(Cl)cc(Cl)c3)oc2c1 [Compound 6, 2-(dimethylamino)ethyl 2-(3,5-dichlorophenyl)benzo-[d]oxazole-6-carboxylate hydrochloride] | D (D is ≥75%) |
| CC(C)(C)OC(=O)NCCOC(=O)c1ccc2nc(-c3cc(Cl)cc(Cl)c3)oc2c1 [Compound 10, 2-((tert-butoxycarbonyl)amino)ethyl 2-(3,5-dichlorophenyl) benzo [d]oxazole-6-carboxylate] | A (A is <25%) |
| O=C(OCCC[P+](c1ccccc1)(c1ccccc1)c1ccccc1)c1ccc2nc(-c3cc(Cl)cc(Cl)c3)oc2c1.[Br-] [Compound 4, (3-(2-(3,5-Dichlorophenyl)benzo[d]oxazole-6-carbonyloxy)propyl) triphenylphosphonium bromide] | A (A is <25%) |
| O=C(NCCCO)c1ccc2nc(-c3cc(Cl)cc(Cl)c3)oc2c1 [Compound 68, 2-(3,5-dichlorophenyl)-N-(3-hydroxypropyl)benzo[d]oxazole-6-carboxamide] | A (A is <25%) |
| CC(C)(C)OC(=O)N1CCC(OC(=O)c2ccc3nc(-c4cc(Cl)cc(Cl)c4)oc3c2)C1 (stereo not shown) [Compound 16, 1-(tert-butoxycarbonyl)pyrrolidin-3-yl 2-(3,5-dichlorophenyl) benzo[d]oxazole-6-carboxylate] | B (B is ≥25 to <50%) |
| Cc1oc(=O)oc1COC(=O)c1ccc2nc(-c3cc(Cl)cc(Cl)c3)oc2c1 [Compound 24, (5-methyl-2-oxo-1,3-dioxol-4-yl)methyl 2-(3,5-dichlorophenyl)benzo[d] oxazole-6-carboxylate] | D (D is ≥75%) |
| CC(C)(C)OC(=O)N[C@H](Cc1ccc(OC(=O)c2ccc3nc(-c4cc(Cl)cc(Cl)c4)oc3c2)cc1)C(=O)OCc1ccccc1 [Compound 69] | A (A is <25%) |
| Cc1oc(=O)n(C)c1COC(=O)c1ccc2nc(-c3cc(Cl)cc(Cl)c3)oc2c1 [Compound 30, (3,5-dimethyl-2-oxo-2,3-dihydrooxazol-4-yl)methyl 2-(3,5-dichlorophenyl) benzo[d]oxazole-6-carboxylate] | B (B is ≥25 to <50%) |
| CN1CCN(CCOC(=O)c2ccc3nc(-c4cc(Cl)cc(Cl)c4)oc3c2)CC1 [Compound 93] | B (B is ≥25 to <50%) |
| CN1C[C@@H](O)[C@H](OC(=O)c2ccc3nc(-c4cc(Cl)cc(Cl)c4)oc3c2)C1 [Compound 56, (3R,4R)-4-hydroxy-1-methylpyrrolidin-3-yl 2-(3,5-dichlorophenyl)benzo[d] oxazole-6-carboxylate] | D (D is ≥75%) |
| O=C(NCC(F)(F)F)c1ccc2nc(-c3cc(Cl)cc(Cl)c3)oc2c1 [Compound 67, 2-(3,5-dichlorophenyl)-N-(2,2,2-trifluoroethyl)benzo[d] oxazole-6-carboxamide] | A (A is <25%) |
| O=C(OCCCN1CCOCC1)c1ccc2nc(-c3cc(Cl)cc(Cl)c3)oc2c1 [Compound 81] | D (D is ≥75%) |
| CN(C)C(CO)COC(=O)c1ccc2nc(-c3cc(Cl)cc(Cl)c3)oc2c1 (stereo not shown) [Compound 55, 2-(dimethylamino)-3-hydroxypropyl 2-(3,5-dichlorophenyl) benzo [d]oxazole-6-carboxylate] | D (D is ≥75%) |
| CC(C)(C)OC(=O)N[C@H](Cc1cccc(OC(=O)c2ccc3nc(-c4cc(Cl)cc(Cl)c4)oc3c2)c1)C(=O)O [Compound 72] | B (B is ≥25 to <50%) |
| O=C(OCCCN1CCS(=O)(=O)CC1)c1ccc2nc(-c3cc(Cl)cc(Cl)c3)oc2c1 [Compound 84] | D (D is ≥75%) |
| CN(CCOC(=O)c1ccc2nc(-c3cc(Cl)cc(Cl)c3)oc2c1)C(=O)OC(C)(C)C [Compound 8, 2-((tert-butoxycarbonyl)(methyl)amino)ethyl 2-(3,5-dichlorophenyl) benzo[d] oxazole-6-carboxylate] | D (D is ≥75%) |

| Structure (SMILES) | Formation of tafamidis at 120 min |
| --- | --- |
| CC(C)(C)OC(=O)N[C@@H](Cc1cccc(OC(=O)c2ccc3nc(-c4cc(Cl)cc(Cl)c4)oc3c2)c1)C(=O)OCc1ccccc1 [Compound 19, (S)-3-(3-(benzyloxy)-2-((tert-butoxycarbonyl)amino)-3-oxopropyl) phenyl 2-(3,5-dichlorophenyl)benzo[d]oxazole-6-carboxylate] | B (B is ≥25 to <50%) |
| O=C(OCc1ncco1)c1ccc2nc(-c3cc(Cl)cc(Cl)c3)oc2c1 [Compound 91] | C (C is ≥50 to <75%) |
| NCCCOC(=O)c1ccc2nc(-c3cc(Cl)cc(Cl)c3)oc2c1 [Compound 25, 3-aminopropyl 2-(3,5-dichlorophenyl)benzo[d]oxazole-6-carboxylate hydrochloride] | A (A is <25%) |
| CN(C)CCCCCOC(=O)c1ccc2nc(-c3cc(Cl)cc(Cl)c3)oc2c1 [Compound 51, 5-(dimethylamino)pentyl 2-(3,5-dichlorophenyl)benzo[d] oxazole-6-carboxylate] | D (D is ≥75%) |
| CN(CCO)C(=O)c1ccc2nc(-c3cc(Cl)cc(Cl)c3)oc2c1 [Compound 65, 2-(3,5-dichlorophenyl)-N-(2-hydroxyethyl)-N-methylbenzo [d] oxazole-6-carboxamide] | A (A is <25%) |
| C[N+](C)(C)CCOC(=O)c1ccc2nc(-c3cc(Cl)cc(Cl)c3)oc2c1.[Cl-] [Compound 29, 2-((2-(3,5-dichlorophenyl)benzo[d]oxazole-6-carbonyl)oxy)-N,N,N-trimethylethanaminium chloride] | A (A is <25%) |
| NCCOC(=O)c1ccc2nc(-c3cc(Cl)cc(Cl)c3)oc2c1 [Compound 15, 2-aminoethyl 2-(3,5-dichlorophenyl)benzo[d]oxazole-6-carboxylate] | A (A is <25%) |
| O=C(OC1CCOC1)c1ccc2nc(-c3cc(Cl)cc(Cl)c3)oc2c1 (stereo not shown) [Compound 95] | D (D is ≥75%) |
| O=C(NCCO)c1ccc2nc(-c3cc(Cl)cc(Cl)c3)oc2c1 [Compound 64, 2-(3,5-dichlorophenyl)-N-(2-hydroxyethyl)benzo[d]oxazole-6-carboxamide] | A (A is <25%) |
| O=C(OC[C@H]1O[C@@H](O)C(O)[C@H](O)C1O)c1ccc2nc(-c3cc(Cl)cc(Cl)c3)oc2c1 (stereo partly shown) [Compound 5, (3,4,5,6-Tetrahydroxytetrahydro-2H-pyran-2-yl)methyl 2-(3,5-Dichlorophenyl) Benzo[d]oxazole-6-Carboxylate] | A (A is <25%) |
| CC(=O)OCC(COC(C)=O)OC(=O)c1ccc2nc(-c3cc(Cl)cc(Cl)c3)oc2c1 [Compound 2, 2-(2-(3,5-Dichlorophenyl)benzo[d]oxazole-6-carbonyloxy)propane-1,3-diyl diacetate] | B (B is ≥25 to <50%) |
| C[C@@H](COC(=O)c1ccc2nc(-c3cc(Cl)cc(Cl)c3)oc2c1)N(C)C [Compound 44, (S)-2-(dimethylamino)propyl 2-(3,5-dichlorophenyl)benzo[d] oxazole-6-carboxylate] | C (C is ≥50 to <75%) |
| CCN(C)CCOC(=O)c1ccc2nc(-c3cc(Cl)cc(Cl)c3)oc2c1 [Compound 43] | C (C is ≥50 to <75%) |
| CC(C)(C)OC(=O)N[C@@H](Cc1ccc(OC(=O)c2ccc3nc(-c4cc(Cl)cc(Cl)c4)oc3c2)cc1)C(=O)OCc1ccccc1 [Compound 18, (S)-4-(3-(benzyloxy)-2-((tert-butoxycarbonyl)amino)-3-oxopropyl) phenyl 2-(3,5-dichlorophenyl)benzo[d]oxazole-6-carboxylate] | C (C is ≥50 to <75%) |
| O=C(OCCC1CCCO1)c1ccc2nc(-c3cc(Cl)cc(Cl)c3)oc2c1 (stereo not shown) [Compound 97] | A (A is <25%) |
| CN1CCN(CCCOC(=O)c2ccc3nc(-c4cc(Cl)cc(Cl)c4)oc3c2)CC1 [Compound 94] | C (C is ≥50 to <75%) |
| CC(C)(C)OC(=O)N[C@@H](Cc1ccc(OC(=O)c2ccc3nc(-c4cc(Cl)cc(Cl)c4)oc3c2)cc1)C(=O)O [Compound 22, (S)-2-((tert-butoxycarbonyl)amino)-3-(4-((2-(3,5-dichlorophenyl)benzo[d]oxazole-6-carbonyl)oxy)phenyl)propanoic acid] | D (D is ≥75%) |
| O=C(OC1CCOC1=O)c1ccc2nc(-c3cc(Cl)cc(Cl)c3)oc2c1 (stereo not shown) [Compound 21] | B (B is ≥25 to <50%) |
| O=C(OCCCC1CCOC1)c1ccc2nc(-c3cc(Cl)cc(Cl)c3)oc2c1 (stereo not shown) [Compound 100] | D (D is ≥75%) |
| CC(C)(C)OC(=O)N[C@H](Cc1ccc(OC(=O)c2ccc3nc(-c4cc(Cl)cc(Cl)c4)oc3c2)cc1)C(=O)O [Compound 70] | B (B is ≥25 to <50%) |
